The source of these data is patent US11672786B2, “Methods of treating diseases associated with repeat instability” (The Hospital for Sick Children, priority 2016, dated 2023).

Assay [1] has as its system Slip-outs of 3, 5, 11 or 15 CAG repeats. The assay can be described thus: band-shift NA binding to slip-outs of 3, 5, 11 or 15 CAG repeats. The note with it: NA 15 μM and 50 μM. The method, then:
Slip-outs of 3, 5, 11 or 15 CAG repeats extruded as a single slip-out from a fully base-paired backbone (see top panel, DNAs sequence and structure). One pmol of each substrate was mixed with increasing concentrations of NA (15 μM and 50 μM) and resolved on 4% polyacrylamide gels. All lanes are from the same gel, and they were separated for clarity. NA-DNA complexes are shown by brackets, free DNA is indicated by arrowheads. For the linear substrate, there is no NA binding (white arrowheads); at the higher concentration of NA, a small decrease of the short slip-outs DNAs (3 and 5 repeats) is observed (grey arrowheads), but it is not possible to define a clear shifted band; band-shift is evident for the (CAG)11 and (CAG)15 slip-out DNAs (black arrowheads). The relative mobility shift was measured (graph panel) as the ratio of the migration distance of each NA-DNA complex to the migration distance of the free DNA. The migration distance was measured from the well to a consistent centre point of each band. Histograms indicate the mean of three independent experiments and the corresponding standard deviation. P-values were calculated by Student's t test.

In the next assay the test system is long (CAG)20 slip-out. The assay can be described thus: in vitro repair assay by HeLa cell extracts, long (CAG)20 slip-out. Type of assay: biochemical, human. From the text: (§1) Panel A of […] is a schematic of the in vitro repair assay. Starting DNAs and repair products released the repeat-containing fragment, which is resolved on PAGE and assessed on a molar level by Southern blotting and densitometry. Repair of different DNA substrates containing a long (CAG)20 slip-out (Panel B of FIG. 3) long (CTG)20 slip-out (Panel C of FIG. 3), a single CAG slip-out (Panel D of FIG. 3) or a single G-T mismatch (Panel E of FIG. 3), in the absence or in the presence of NA. Slipped-DNA substrates were prepared from hybrids of (CAG)50●(CTG)30, (CAG)30●(CTG)50 or of (CAG)50●(CTG)49. Repair of the G-T mismatch reconstitutes a HindIII restriction site, as shown schematically. Graphs show percentage repair efficiencies to repaired product relative to all repeat-containing fragments in the lane, values are normalized to the NA-free efficiency. […]
(§2) To determine how the binding of NA to slipped DNA structures affects repair, a series of circular slipped heteroduplex substrates was made with an excess of repeats with a nick located either 5′ or 3′ of the slip-out (FIG. 3). […] All these substrates were processed in […] by HeLa extracts and then were assessed for repair. Repair products were analyzed by Southern blotting, probed for the repeat-containing fragment, and compared with starting material, which permitted quantitative assessment of repair efficiency at a molar level. […]

A further assay has as its system single G-T mismatch. The assay can be described thus: in vitro repair assay by HeLa cell extracts, G-T mismatch. Type of assay: biochemical, human.
Description: as §1, §2

In assay [2] the test system is Huntington's disease R6/2 transgenic mice, striatum. The assay can be described thus: stereotaxic intra-striatal injections into R6/2 mice, CAG length Genescan analysis and instability index. The format is in vivo, mouse. The protocol: This calculation corrects background using a relative height threshold and normalizes data efficiently, generating an “instability index” that represents the mean CAG length change from the main allele per cell in a population of cells: greater indices reflect greater expansions, lower indices-lower expansions.
Mouse handling and experimental procedures were conducted in accordance with the Osaka University guidelines for the welfare of animals. A single drug application involved six separate stereotactic injections, three injections of drug or saline into three different striatal regions of either the left or right striatum, respectively (outlined in FIG. 24). Under sterile conditions, 6-week-old R6/2 mice were anesthetized with 50 mg/kg pentobarbital sodium, and stereotaxically injected with 5 μl of saline (right side) or 500 μM NA dissolved in saline (left side) into three different sites of the striatum. The mice received injections once or twice bi-weekly, or weekly for 4 consecutive weeks. Stereotaxic injections were delivered to three sites within the striatum with the following coordinates: (anterior-posterior (AP)=0.0 mm, medial-lateral (ML)=1.5 mm from bregma, dorsal-ventral (DV)=2.5 mm below the dural surface; AP=1.0 mm, ML=1.5 mm, DV=2.5 mm; and AP=0.5 mm, ML=1.5 mm, DV=2.5 mm), using a 10-μl Hamilton microsyringe at a rate of 0.5 μL/min. Refer to FIG. 24 outlining dosing regimen. […] The control of our NA treatment is therefore the contralateral side of the striatum of each mouse. Both right and left striatum were assessed for repeat length at the HD CAG transgene and at endogenous, long CAG tracts. For the mice treated four times, DNAs from the tail prior to and following NA administration, as well as left and right frontal cortex and left and right cerebellum were harvested.
At 4 weeks after the first injection, DNA was isolated from mouse brain tissue as previously described (Nakamori et al. 2009, Neuromuscul. Disord., 19:759-62). PCR was performed as described previously (Tome et al., 2013, PLoS Genet., 9:e1003280), and PCR products were sized on an ABI310 Gene Analyser using […] 3.1 software (Life Technologies).
The procedure for instability index calculation was done as previously described (Lee et al., 2010, BMC Syst. Biol., 4:29) and is illustrated and outlined in FIG. 27A.

For assay [3], the system named is transcription across the CAG transgene, R6/2 striatum. The assay can be described thus: qRT-PCR of CAG transgene transcription in R6/2 striatum. The format is in vivo, mouse. The conditions noted are these: NA-treated vs. PBS-treated R6/2 striatum. The protocol: Strand specific RT-PCR (1 weeks). AttB-PhiC31 system have been widely used for single copy integration. Panel B of FIG. 16 was determined by quantitative real-time reverse transcriptase (qRT)-PCR and normalized to U6 RNA, expressed as the ratio of NA-treated vs. PBS-treated R6/2 striatum. Data are indicated as the mean±SD of triplicates.

The next assay concerns CAG-CAG. The note with it: cited from earlier work.

For the substance naphthyridine-azaquinolone, in assay [1], the “NA binding by slip-out length (relative mobility shift)” value was “significantly better for longer than shorter CAG slip-outs”. In addition, the “effect on repair of long (CAG)20 slip-outs” value with long (CAG)20 slip-out is reported as “specifically inhibits repair”. Moreover, the “effect on G-T mismatch repair” value in the assay on single G-T mismatch was “no effect”. Also, the “instability index of striatum” value in assay [2] (1, 2 and 4 administrations) is “progressively reduced”. The “effect on expanded repeat relative to saline-injected contralateral striatum” value in assay [2] (6-week-old R6/2 mice, repeated intra-striatal injections over four weeks) was “led to seeming contractions of the expanded repeat”. The “extrapolated repeat contraction in an HD-affected human” value in assay [2] (extrapolation from mice, treatments spanning one year) is on record as 5-25 repeats. Further, the “difference of main peak CAG lengths saline- versus NA-treated versus tail” value in assay [2] (four injections, 500 μM NA intra-striatal) is listed as 4-7 CAG units. In addition, in assay [2] (intra-striatal injections, left versus right side), the “CAG length heterogeneity in cerebral cortex and cerebellum (non-injected tissues)” value was “identical patterns of CAG length heterogeneity in the right and left sides”. For the same substance, the “rate of contractions in striatal neurons” value in assay [2] (mice with about 150 CAG repeats, four-week period of NA treatment, 500 μM intra-striatal) is listed as around 0.5 repeats lost/week. In assay [3], the “effect on transcription across the CAG transgene” value is given as “does not affect transcription”. Besides, the “affinity of each NA molecule/CAG-CAG as Ka” value with CAG-CAG (estimated) was 1.8e+06 M⁻¹. Also, the Kd on CAG-CAG (estimated, read-out: affinity of each NA molecule/CAG-CAG as Kd) is 560 nM. The “ratio of NA molecules to 1 CAG-CAG” value in the assay on CAG-CAG (previously estimated binding stoichiometry) is recorded as 2.
